These results are taken from patent publication US12559506B2, “Indazole based compounds and associated methods of use” (Arvinas Operations, Inc., priority 2021, dated 2026).

Holding throughout (format): cell-based
One experiment has as its target T1, G2019S LRRK2 (Homo sapiens, UniProt Q5S007, G2019S).
T1 construct: expressed in transfected cells; host or cells: HEK293 (ATCC CRL-1573), transient transfection, mammalian expression vector with ubiquitin promoter
As to the kind of experiment: LRRK2 degradation assay, HiBit-tagged G2019S LRRK2 expressed from plasmid in HEK293 cells (Nano-Glo Dual-Luciferase). The note with it: 24 hours. An outline of the steps:
(§1)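 Degradation read as Nano-Glo HiBiT signal over firefly luciferase (cell number/viability) after 24 h compound exposure of transiently transfected HEK293 expressing C-terminally HiBiT-tagged wildtype or G2019S LRRK2. Data as % DMSO; DC50/Dmax fitted per plate, triplicate plates repeated twice.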
(In general: HiBiT is a short tag that completes a luciferase, so light tracks the accessible tagged protein.)

Another experiment concerns the target T2, wildtype LRRK2 (Homo sapiens, UniProt Q5S007).
T2 construct: expressed in transfected cells; host or cells: HEK293 (ATCC CRL-1573), transient transfection, mammalian expression vector with ubiquitin promoter
As to the kind of experiment: LRRK2 degradation assay, HiBit-tagged wildtype LRRK2 expressed from plasmid in HEK293 cells (Nano-Glo Dual-Luciferase). The note with it: 24 hours; for Dmax: read-out: **WT Dmax (%); for DC50: read-out: *WT DC50. An outline of the steps: as §1

Experiment [1] concerns the target T3, LRRK2 (endogenous, HiBit tagged) (Homo sapiens, UniProt Q5S007).
T3 construct: endogenous in cells; host or cells: HEK293 cells with HiBit knock-in at the endogenous LRRK2 locus, stably expressing firefly luciferase
As to the kind of experiment: Endogenous LRRK2 degradation assay, endogenous gene C-terminally HiBit-tagged in HEK293 cells (Nano-Glo Dual Luciferase). The note with it: 24 hours; for Dmax: read-out: **Endogenous WT Dmax (%); for DC50: read-out: *Endogenous WT DC50. In short, it runs like this: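 LRRK2-HiBit quantified via Nano-Glo Dual Luciferase in HEK293 knock-in cells co-expressing firefly luciferase, after 24 h exposure to compound (1 μM final top, 1:3, 11 points). Values normalised to DMSO median per plate and curve-fitted; Alamar Blue viability run alongside.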

Setting [2] is: HiBit-tagged G2019S LRRK2 in HEK293 cells.
Setting [3] is: HiBit-tagged wildtype LRRK2 in HEK293 cells.
The mark [4] stands for this setting: endogenous HiBit-tagged LRRK2 in HEK293 cells.
[5] abbreviates: HiBit-tagged G2019S LRRK2, HEK293 cells.
The mark [6] stands for this setting: HiBit-tagged wildtype LRRK2, HEK293 cells.
Setting [7] is: endogenous HiBit-tagged LRRK2, HEK293 cells.

Like-named read-outs stand apart in the source and are kept apart here. A value given as a limit tells only on which side of the number the result lay.

T1 sequence (Q5S007 whole entry G2019S): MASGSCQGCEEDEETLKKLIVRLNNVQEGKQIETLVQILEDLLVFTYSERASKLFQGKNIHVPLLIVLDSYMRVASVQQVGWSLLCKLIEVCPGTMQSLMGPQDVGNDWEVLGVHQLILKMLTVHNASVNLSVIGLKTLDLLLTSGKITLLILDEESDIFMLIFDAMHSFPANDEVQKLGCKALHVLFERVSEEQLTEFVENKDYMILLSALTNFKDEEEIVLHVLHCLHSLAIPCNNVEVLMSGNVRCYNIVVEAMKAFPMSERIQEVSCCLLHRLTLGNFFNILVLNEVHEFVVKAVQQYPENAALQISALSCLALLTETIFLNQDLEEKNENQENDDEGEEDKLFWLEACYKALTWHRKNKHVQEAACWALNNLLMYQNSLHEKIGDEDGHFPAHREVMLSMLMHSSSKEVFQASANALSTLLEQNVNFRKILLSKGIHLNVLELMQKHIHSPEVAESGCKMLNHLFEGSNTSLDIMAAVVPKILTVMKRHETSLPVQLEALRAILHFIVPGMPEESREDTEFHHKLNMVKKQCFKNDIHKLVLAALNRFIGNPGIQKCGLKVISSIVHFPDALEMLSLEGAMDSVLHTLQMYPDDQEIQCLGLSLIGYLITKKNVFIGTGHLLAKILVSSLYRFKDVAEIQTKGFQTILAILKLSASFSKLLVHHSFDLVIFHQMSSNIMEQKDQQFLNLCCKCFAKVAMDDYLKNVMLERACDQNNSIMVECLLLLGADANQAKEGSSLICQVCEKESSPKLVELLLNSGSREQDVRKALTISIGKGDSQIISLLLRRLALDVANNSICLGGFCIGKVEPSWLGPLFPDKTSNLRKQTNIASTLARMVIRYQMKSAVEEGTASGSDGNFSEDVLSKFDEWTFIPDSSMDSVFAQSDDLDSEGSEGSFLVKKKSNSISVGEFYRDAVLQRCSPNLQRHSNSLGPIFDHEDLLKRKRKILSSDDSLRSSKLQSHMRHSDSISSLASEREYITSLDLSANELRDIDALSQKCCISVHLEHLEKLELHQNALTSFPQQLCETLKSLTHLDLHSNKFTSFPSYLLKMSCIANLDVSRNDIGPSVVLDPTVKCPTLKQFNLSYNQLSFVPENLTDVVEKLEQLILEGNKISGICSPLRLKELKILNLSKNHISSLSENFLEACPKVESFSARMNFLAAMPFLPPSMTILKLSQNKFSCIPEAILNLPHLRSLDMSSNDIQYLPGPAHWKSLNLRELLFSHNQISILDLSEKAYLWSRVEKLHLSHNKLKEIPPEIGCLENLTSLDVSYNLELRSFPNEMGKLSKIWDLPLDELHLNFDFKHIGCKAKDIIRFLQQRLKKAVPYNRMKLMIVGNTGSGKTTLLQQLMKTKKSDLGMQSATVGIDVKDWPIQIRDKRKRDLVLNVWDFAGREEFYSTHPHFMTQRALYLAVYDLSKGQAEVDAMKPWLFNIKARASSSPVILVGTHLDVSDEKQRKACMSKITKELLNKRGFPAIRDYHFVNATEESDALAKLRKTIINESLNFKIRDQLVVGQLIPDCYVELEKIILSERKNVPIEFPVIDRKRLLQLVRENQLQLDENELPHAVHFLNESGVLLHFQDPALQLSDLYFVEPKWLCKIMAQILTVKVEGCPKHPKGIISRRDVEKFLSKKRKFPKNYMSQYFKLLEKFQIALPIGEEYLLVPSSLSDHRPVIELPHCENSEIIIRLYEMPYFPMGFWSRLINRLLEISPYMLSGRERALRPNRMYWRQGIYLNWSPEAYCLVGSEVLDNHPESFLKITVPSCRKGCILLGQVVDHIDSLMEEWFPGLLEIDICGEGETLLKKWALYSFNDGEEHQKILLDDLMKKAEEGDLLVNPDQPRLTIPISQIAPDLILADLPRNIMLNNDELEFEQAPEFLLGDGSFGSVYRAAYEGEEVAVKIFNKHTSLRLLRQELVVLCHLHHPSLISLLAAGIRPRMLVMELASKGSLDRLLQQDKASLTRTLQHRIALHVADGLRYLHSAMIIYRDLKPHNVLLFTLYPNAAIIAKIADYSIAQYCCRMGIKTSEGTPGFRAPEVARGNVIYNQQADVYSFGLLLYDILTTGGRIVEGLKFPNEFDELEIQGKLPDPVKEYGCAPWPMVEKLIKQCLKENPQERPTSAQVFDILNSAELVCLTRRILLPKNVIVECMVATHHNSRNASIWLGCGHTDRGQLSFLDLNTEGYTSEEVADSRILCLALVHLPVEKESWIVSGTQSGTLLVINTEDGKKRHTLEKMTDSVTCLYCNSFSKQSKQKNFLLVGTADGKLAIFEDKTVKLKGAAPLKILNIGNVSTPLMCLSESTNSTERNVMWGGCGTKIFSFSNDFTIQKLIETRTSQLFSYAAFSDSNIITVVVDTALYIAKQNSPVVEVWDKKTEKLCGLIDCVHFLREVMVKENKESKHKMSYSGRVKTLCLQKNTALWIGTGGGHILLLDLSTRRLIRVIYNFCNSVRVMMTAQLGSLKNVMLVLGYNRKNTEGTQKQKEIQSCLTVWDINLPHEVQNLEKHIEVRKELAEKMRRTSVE
T2 sequence (Q5S007 whole entry): as the sequence (Q5S007 whole entry G2019S) above, with S2019G counted along it
T3 sequence (Q5S007 whole entry): as the sequence (Q5S007 whole entry G2019S) above, with S2019G counted along it

One may read the DC50 as the midpoint of the concentration-degradation curve. The term Dmax denotes the largest share of the target that was removed. On to `C[C@H]1CN(c2cc(-c3[nH]nc4ccc(OC5(C)CC5)cc34)ncn2)CCN1CC1CCN(CC2CCN(c3cccc4c3C(=O)N(C3CCC(=O)NC3=O)C4=O)CC2)CC1` (stereo partly drawn) [Compound 137, 2-(2,6-dioxo-3-piperidyl)-4-[4-[[4-[[(2S)-2-methyl-4-[6-[5-(1-methylcyclopropoxy)-2H-indazol-3-yl]pyrimidin-4-yl]piperazin-1-yl]methyl]-1-piperidyl]methyl]-1-piperidyl]isoindoline-1,3-dione], for which the DC50 on G2019S LRRK2 (setting [2]) is less than 0.01 µM; at wildtype LRRK2 (setting [3]), less than 0.01 µM; in experiment [1] (setting [4]) it was 0.01 to 0.05 µM. Besides, the Dmax (on G2019S LRRK2 (setting [2]); at wildtype LRRK2 (setting [3]); in experiment [1] (setting [4])) was no less than 70% each time.

Take `CC1(Oc2ccc3[nH]nc(-c4ccnc(N5CC(F)(CN6CCN(CC7CCN(c8ccc9c(c8)C(=O)N(C8CCC(=O)NC8=O)C9=O)CC7)CC6)C5)c4)c3c2)CC1` (stereo not drawn) [Compound 132, 2-(2,6-dioxopiperidin-3-yl)-5-[4-({4-[(3-fluoro-1-{4-[5-(1-methylcyclopropoxy)-1H-indazol-3-yl]pyridin-2-yl}azetidin-3-yl)methyl]piperazin-1-yl}methyl)piperidin-1-yl]-2,3-dihydro-1H-isoindole-1,3-dione]: the DC50 (on G2019S LRRK2 (setting [2]); on wildtype LRRK2 (setting [3]); in experiment [1] (setting [4])) was less than 0.01 µM throughout. In addition, the Dmax at G2019S LRRK2 (setting [2]) is 50 to 70%; on wildtype LRRK2 (setting [3]), 50 to 70%; in experiment [1] (setting [4]), no less than 70%.

With `C[C@H]1CN(c2cc(-c3[nH]nc4ccc(OC5(C)CC5)cc34)ncn2)CCN1CCC1(F)CCN(CC2CCN(c3ccc4c(c3)CN(C3CCC(=O)NC3=O)C4=O)CC2)CC1` (stereo partly drawn) [Compound 64, 3-[5-[4-[[4-fluoro-4-[2-[(2S)-2-methyl-4-[6-[5-(1-methylcyclopropoxy)-2H-indazol-3-yl]pyrimidin-4-yl]piperazin-1-yl]ethyl]-1-piperidyl]methyl]-1-piperidyl]-1-oxo-isoindolin-2-yl]piperidine-2,6-dione], the DC50 (on G2019S LRRK2 (setting [2]); at wildtype LRRK2 (setting [3]); in experiment [1] (setting [4])) was less than 0.01 µM in each case. The Dmax (at G2019S LRRK2 (setting [2]); on wildtype LRRK2 (setting [3]); in experiment [1] (setting [4])) was no less than 70% in each case.

In the case of `CC1(Oc2ccc3n[nH]c(-c4cc(N5CCC(COC6CCN(CC7CCN(c8ccc9c(c8)C(=O)N(C8CCC(=O)NC8=O)C9=O)CC7)CC6)CC5)ncn4)c3c2)CC1` (stereo not drawn) [Compound 61, 2-(2,6-dioxo-3-piperidyl)-5-[4-[[4-[[1-[6-[5-(1-methylcyclopropoxy)-2H-indazol-3-yl]pyrimidin-4-yl]-4-piperidyl]methoxy]-1-piperidyl]methyl]-1-piperidyl]isoindoline-1,3-dione], the DC50 (on G2019S LRRK2 (setting [2]); on wildtype LRRK2 (setting [3]); in experiment [1] (setting [4])) was less than 0.01 µM throughout. In addition, the Dmax (at G2019S LRRK2 (setting [2]); on wildtype LRRK2 (setting [3]); in experiment [1] (setting [4])) was no less than 70% in each case.

As to `CC1(Oc2ccc3n[nH]c(-c4cc(N5CCC(CN6CCN(CC7CCN(c8ccc9c(c8)CN(C8CCC(=O)NC8=O)C9=O)CC7)CC6)CC5)ncn4)c3c2)CC1` (stereo not drawn) [Compound 112, 3-[5-[4-[[4-[[1-[6-[5-(1-methylcyclopropoxy)-2H-indazol-3-yl]pyrimidin-4-yl]-4-piperidyl]methyl]piperazin-1-yl]methyl]-1-piperidyl]-1-oxo-isoindolin-2-yl]piperidine-2,6-dione], the DC50 (at G2019S LRRK2 (setting [2]); at wildtype LRRK2 (setting [3]); in experiment [1] (setting [4])) was less than 0.01 µM in each case. Moreover, the Dmax (at G2019S LRRK2 (setting [2]); on wildtype LRRK2 (setting [3]); in experiment [1] (setting [4])) was no less than 70% throughout.

With `C[C@H]1CN(c2cc(-c3n[nH]c4ccc(OC5(C)CC5)cc34)ncn2)CCN1CC1(F)CCN(CC2CCN(c3ccc4c(c3)C(=O)N(C3CCC(=O)NC3=O)C4=O)CC2)CC1` (stereo partly drawn) [Compound 69, 2-(2,6-dioxo-3-piperidyl)-5-[4-[[4-fluoro-4-[[(2S)-2-methyl-4-[6-[5-(1-methylcyclopropoxy)-1H-indazol-3-yl]pyrimidin-4-yl]piperazin-1-yl]methyl]-1-piperidyl]methyl]-1-piperidyl]isoindoline-1,3-dione], the DC50 (at G2019S LRRK2 (setting [2]); at wildtype LRRK2 (setting [3]); in experiment [1] (setting [4])) was less than 0.01 µM each time. Further, the greatest degradation seen (Dmax) is less than 50% on G2019S LRRK2 (setting [2]), less than 50% on wildtype LRRK2 (setting [3]) and 50 to 70% in experiment [1] (setting [4]).

With `CC1(Oc2ccc3[nH]nc(-c4ccnc(N5CC(CC6CCN(CC7CCN(c8ccc9c(c8)C(=O)N(C8CCC(=O)NC8=O)C9=O)CC7)CC6)C5)c4)c3c2)CC1` (stereo not drawn) [Compound 160, 2-(2,6-dioxo-3-piperidyl)-5-[4-[[4-[[1-[4-[5-(1-methylcyclopropoxy)-1H-indazol-3-yl]-2-pyridyl]azetidin-3-yl]methyl]-1-piperidyl]methyl]-1-piperidyl]isoindoline-1,3-dione], the DC50 (at G2019S LRRK2 (setting [5]); on wildtype LRRK2 (setting [6]); in experiment [1] (setting [7])) was less than 0.01 µM each time. In addition, the results for the Dmax (on G2019S LRRK2 (setting [5]); at wildtype LRRK2 (setting [6]); in experiment [1] (setting [7])) were 50 to 70%, 50 to 70% and no less than 70%, respectively.

`CC1(Oc2ccc3n[nH]c(-c4cc(N5CC(OC6CCN(CC7CCN(c8ccc9c(c8)C(=O)N(C8CCC(=O)NC8=O)C9=O)CC7)CC6)C5)ncn4)c3c2)CC1` (stereo not drawn) [Compound 130, 2-(2,6-dioxo-3-piperidyl)-5-[4-[[4-[1-[6-[5-(1-methylcyclopropoxy)-2H-indazol-3-yl]pyrimidin-4-yl]azetidin-3-yl]oxy-1-piperidyl]methyl]-1-piperidyl]isoindoline-1,3-dione]: the DC50 (at G2019S LRRK2 (setting [2]); on wildtype LRRK2 (setting [3]); in experiment [1] (setting [4])) was less than 0.01 µM each time. Further, the values for the Dmax (at G2019S LRRK2 (setting [2]); at wildtype LRRK2 (setting [3]); in experiment [1] (setting [4])) were 50 to 70%, 50 to 70% and no less than 70%, respectively.

Turning to `CC1(Oc2ccc3[nH]nc(-c4cc(N5CCN(C[C@@H]6CC(=O)N(CC7CCN(c8ccc9c(c8)C(=O)N(C8CCC(=O)NC8=O)C9=O)CC7)C6)CC5)ncn4)c3c2)CC1` (single isomer, unassigned) [Compound 121], the half-maximal degradation concentration (DC50) (at G2019S LRRK2 (setting [2]); on wildtype LRRK2 (setting [3]); in experiment [1] (setting [4])) was less than 0.01 µM throughout. The values for the Dmax (on G2019S LRRK2 (setting [2]); at wildtype LRRK2 (setting [3]); in experiment [1] (setting [4])) were 50 to 70%, 50 to 70% and no less than 70%, respectively.

On to `C[C@H]1CN(c2cc(-c3n[nH]c4ccc(OC5(C)CC5)cc34)ncn2)CCN1CCC1(F)CCN(CC2CCN(c3ccc4c(c3)C(=O)N(C3CCC(=O)NC3=O)C4=O)CC2)CC1` (stereo partly drawn) [Compound 52, 2-(2,6-dioxo-3-piperidyl)-5-[4-[[4-fluoro-4-[2-[(2S)-2-methyl-4-[6-[5-(1-methylcyclopropoxy)-1H-indazol-3-yl]pyrimidin-4-yl]piperazin-1-yl]ethyl]-1-piperidyl]methyl]-1-piperidyl]isoindoline-1,3-dione], for which the DC50 on G2019S LRRK2 (setting [2]) was less than 0.01 µM; at wildtype LRRK2 (setting [3]) it was less than 0.01 µM; in experiment [1] (setting [4]), 0.01 to 0.05 µM. In addition, the values for the maximal degradation (Dmax) (at G2019S LRRK2 (setting [2]); at wildtype LRRK2 (setting [3]); in experiment [1] (setting [4])) were 50 to 70%, 50 to 70% and no less than 70%, respectively.

With `CC1(Oc2ccc3n[nH]c(-c4cc(N5CCC(CN6CCN(CC7CCN(c8ccc9c(c8)C(=O)N(C8CCC(=O)NC8=O)C9=O)CC7)CC6)CC5)ncn4)c3c2)CC1` (stereo not drawn) [Compound 68, 2-(2,6-dioxo-3-piperidyl)-5-[4-[[4-[[1-[6-[5-(1-methylcyclopropoxy)-2H-indazol-3-yl]pyrimidin-4-yl]-4-piperidyl]methyl]piperazin-1-yl]methyl]-1-piperidyl]isoindoline-1,3-dione], the half-maximal degradation concentration (DC50) (at G2019S LRRK2 (setting [2]); at wildtype LRRK2 (setting [3]); in experiment [1] (setting [4])) was less than 0.01 µM each time. The Dmax (at G2019S LRRK2 (setting [2]); on wildtype LRRK2 (setting [3]); in experiment [1] (setting [4])) was no less than 70% in each case.

On to `CC1(Oc2ccc3[nH]nc(-c4cc(N5CCN(C[C@H]6CC(=O)N(CC7CCN(c8ccc9c(c8)C(=O)N(C8CCC(=O)NC8=O)C9=O)CC7)C6)CC5)ncn4)c3c2)CC1` (single isomer, unassigned) [Compound 120], for which the DC50 (on G2019S LRRK2 (setting [2]); on wildtype LRRK2 (setting [3]); in experiment [1] (setting [4])) was less than 0.01 µM in each case. The Dmax (at G2019S LRRK2 (setting [2]); at wildtype LRRK2 (setting [3]); in experiment [1] (setting [4])) was 50 to 70% in each case.

In the case of `CC1(Oc2ccc3n[nH]c(-c4cc(N5CC(F)(CN6CCN(CC7CCN(c8ccc9c(c8)C(=O)N(C8CCC(=O)NC8=O)C9=O)CC7)CC6)C5)ncn4)c3c2)CC1` (stereo not drawn) [Compound 131, 2-(2,6-dioxo-3-piperidyl)-5-[4-[[4-[[3-fluoro-1-[6-[5-(1-methylcyclopropoxy)-2H-indazol-3-yl]pyrimidin-4-yl]azetidin-3-yl]methyl]piperazin-1-yl]methyl]-1-piperidyl]isoindoline-1,3-dione], the DC50 (at G2019S LRRK2 (setting [2]); on wildtype LRRK2 (setting [3]); in experiment [1] (setting [4])) was less than 0.01 µM in each case. Besides, the Dmax (on G2019S LRRK2 (setting [2]); at wildtype LRRK2 (setting [3]); in experiment [1] (setting [4])) was no less than 70% throughout.
